Source: PMC9264368, “Structural Analysis and Development of Notum Fragment Screening Hits” (ACS Chemical Neuroscience, 2022)
≈ marks a conversion by molar mass, not a printed value. Where two headings read alike, the source gives them in different places.

Assays:
[1] = set-up: method as in PMID 33124429; conditions: mouse; cited from earlier work
[2] = test system: Wnt/β-catenin signaling in the presence of Notum; conditions: read-out: EC50, restoration of Wnt/β-catenin signaling, TCF/LEF reporter
[3] = test system: Wnt/β-catenin signaling in the presence of Notum; set-up: method as in PMID 35536179; conditions: read-out: EC50, cell-based reporter (TCF/LEF) assay; cited from earlier work
[4] = set-up: method as in PMID 35536179; conditions: cited from earlier work
[5] = set-up: method as in PMID 35536179; conditions: mouse liver microsomes; cited from earlier work
[6] = set-up: method as in PMID 35536179; conditions: human liver microsomes; cited from earlier work
MDCK-MDR1 = test system: MDCK-MDR1; set-up: method as in PMID 35536179; conditions: cited from earlier work
Notum [7] = biological target: T1, Notum (Homo sapiens, UniProt Q6P988, C330S); experiment: biochemical
T1 sequence (Q6P988 81-451 C330S): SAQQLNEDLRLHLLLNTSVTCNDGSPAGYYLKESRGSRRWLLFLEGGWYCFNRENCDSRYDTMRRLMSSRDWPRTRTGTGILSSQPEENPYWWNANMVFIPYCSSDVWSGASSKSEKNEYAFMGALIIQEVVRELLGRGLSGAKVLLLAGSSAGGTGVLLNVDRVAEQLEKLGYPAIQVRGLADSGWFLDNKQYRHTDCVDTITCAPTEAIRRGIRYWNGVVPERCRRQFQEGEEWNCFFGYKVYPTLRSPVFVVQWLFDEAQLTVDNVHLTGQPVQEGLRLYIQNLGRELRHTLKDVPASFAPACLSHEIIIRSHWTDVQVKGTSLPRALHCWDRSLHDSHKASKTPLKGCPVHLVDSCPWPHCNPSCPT

Notum [8] = biological target: T1, Notum; conditions: for LE (ligand efficiency): LE = 1.4(−pIC50)/HAC; for LLE (lipophilic ligand efficiency): LLE = pIC50 – clogP; for LE / LLE: supplementary CSV
[9] = Notum IC50, OPTS substrate, 10-point curves 30 nM to 1 mM, mean ± s.d. of N = 2–4 unless stated, Table 1 and figures
[10] = pIC50, Table 1, Notum OPTS assay

Structure (SMILES) | IC50 (Notum [7]; [9]) [µM] | LE (ligand efficiency) (Notum [8]) | LLE (lipophilic ligand efficiency) (Notum [8]) | LE (Notum [8]) | LLE (Notum [8]) | other results
Oc1nnc(-c2ccc(Cl)c(C(F)(F)F)c2)o1 [7a] | – | – | – | – | – | brain penetration [1]: only partial; plasma exposure [1]: good
OCc1cn(-c2ccc(Cl)c(C(F)(F)F)c2)nn1 [7b, (1-(4-Chloro-3-(trifluoromethyl)phenyl)-1H-1,2,3-triazol-4-yl)methanol] | – | – | – | – | – | EC50 [2]: 1600 ± 1200 nM
FC(F)(F)c1c(Cl)ccc(-n2ccnn2)c1Cl [7d] | – | – | – | – | – | EC50 [3]: 110 ± 100 nM
OCc1cn(-c2ccc(Cl)c(Cl)c2)nn1 [compound 7] | < 10 | – | – | – | – | aqueous solubility [4]: 100 mg/mL (≈ 410 mM); MLM Cli [5]: 88 µL/min/mg protein; HLM Cli [6]: 12 µL/min/mg protein; Papp AB (MDCK-MDR1; MDCK-MDR1, AB): 57 × 10^–6 cm/s; Papp BA (MDCK-MDR1; MDCK-MDR1, BA): 59 × 10^–6 cm/s
COCC(=O)NCc1ccccc1 [compound 41] | 68 ± 5.4 | 0.45 | 3.2 | 0.45 | 3.2 | –
COc1ccc(CNC(=O)[C@@H]2CCCO2)cc1 [compound 43] | 87 ± 47 | 0.34 | 2.7 | 0.34 | 2.7 | –
COC(=O)COc1ccc(C#N)cc1 [compound 44] | 410 ± 63 | 0.34 | 2.0 | 0.34 | 2 | –
C[C@@H](Oc1ccc(-c2ccccc2)cc1)C(=O)O [compound 55] | 200 ± 76 | 0.29 | 0.2 | 0.29 | 0.2 | –

Now from value to molecule, other results behind:

IC50 (Notum [7]; [9]) [µM] | LE (ligand efficiency) (Notum [8]) | LLE (lipophilic ligand efficiency) (Notum [8]) | LE (Notum [8]) | LLE (Notum [8]) | Structure (SMILES) | other results
720 ± 18 | 0.24 | 1.2 | 0.24 | 1.2 | O=C(NCCc1ccc(O)cc1)c1ccccn1 [compound 45] | –
380 ± 130 | 0.32 | 0.7 | 0.32 | 0.7 | COc1cc(-c2ccccc2)nc(N)n1 [compound 46] | –
550 ± 93 | 0.33 | 1.8 | 0.33 | 1.8 | Cn1nc(O)cc1Nc1ccccc1 [compound 49] | IC50 (Notum [7]; [10]): 631 µM
36 ± 2.7 | 0.37 | 1.1 | 0.37 | 1.1 | Cc1ccc(C)c(OC(=O)c2ccncc2)c1 [compound 50] | –
980 ± 17 | 0.25 | 2.7 | 0.25 | 2.7 | CCc1noc(C)c1C(=O)Nc1cc(C)on1 [compound 53] | –
78 ± 8.2 | 0.38 | 2.0 | 0.38 | 2 | Cc1ccccc1CNc1nnnn1C [compound 54] | –
260 ± 51 | 0.33 | 1.5 | 0.33 | 1.5 | CCn1c(NC(C)=O)nc2ccccc21 [compound 57] | IC50 (Notum [7]; [10]): 316 µM
390 ± 53 | 0.38 | 1.4 | 0.38 | 1.4 | CC(=O)Nc1ccc2nsnc2c1 [compound 58] | –
